Measurements reported in patent US5962502A, “Polyamidic acid derivatives with antigastrin activity, a method for their preparation, and their pharmaceutical use” (priority 1993, dated 1999).
Values joined by “and” are separate entries in the source; they are usually repeats but may differ in a detail not shown here. Equal entries are not always repeated.

How the values were obtained:
[1] = biological target: T1, gastrin receptors or type-B cholecystokinin (CCK-B) receptors (Oryctolagus cuniculus, UniProt P46627); assay: Inhibition of the gastrin-induced increase of cytosolic calcium in rabbit gastric mucous-membrane cells (Fura 2); format: cell-based; details: for Ratio IC50 Binding cortex / IC50 (gastric mucous cells): binding values taken from Table 3; for CCK-B-antagonistic activity IC50 (II): data taken from Table 4 (rabbit gastric mucous cells), reprinted in Table 6; for IC50, inhibition of the increase of cytosolic calcium: rabbit gastric mucous cells enriched in parietal cells, gastrin 5×10^-8
T1 construct: Rabbit gastric mucous-membrane cells were prepared by conventional techniques; endogenous in cells; host or cells: freshly isolated rabbit gastric mucosal cells, enriched by elutriation to about 70% parietal cells
T1 sequence (P46627 1-452): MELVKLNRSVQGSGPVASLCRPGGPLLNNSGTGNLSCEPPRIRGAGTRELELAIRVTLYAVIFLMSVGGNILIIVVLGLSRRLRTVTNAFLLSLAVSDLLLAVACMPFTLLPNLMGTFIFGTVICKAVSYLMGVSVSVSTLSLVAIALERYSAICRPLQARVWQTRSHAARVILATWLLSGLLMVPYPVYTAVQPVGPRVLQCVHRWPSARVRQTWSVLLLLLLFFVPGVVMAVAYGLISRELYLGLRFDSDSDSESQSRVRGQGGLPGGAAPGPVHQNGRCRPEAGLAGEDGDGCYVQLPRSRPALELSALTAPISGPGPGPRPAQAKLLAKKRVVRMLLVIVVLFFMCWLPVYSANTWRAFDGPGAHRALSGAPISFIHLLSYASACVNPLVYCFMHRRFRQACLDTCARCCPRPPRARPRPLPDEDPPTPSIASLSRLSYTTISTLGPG
Outline: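 Enzymatically dispersed (collagenase/pronase) rabbit gastric mucosal cells, loaded with Fura 2, were suspended at 0.8×10^6/ml in HEPES-buffered saline at 37 °C with stirring. Gastrin-induced cytosolic Ca²⁺ rise was measured with and without compound by fluorescence (excitation 340/380 nm, emission 505 nm).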

[2] = test system: acid secretion induced by pentagastrin; assay: Acid secretion induced by pentagastrin in the anaesthetized rat; format: in vivo; details: for ED50: iv, 1 h, I.V. bolus, pentagastrin 30 mcg/kg/h, read-out: Activity (ID50), inhibition of the acid secretion induced by pentagastrin; for antigastrin activity relative to the diastereoisomer at the carbon atom (**): pentagastrin-induced acid secretion
Protocol: The activity of the compounds of the invention against gastric secretion performed by means of a mechanism with an antigastrin effect, was examined in vivo in anaesthetized rats with the use of male animals weighing about 200 g. Gastric secretion was stimulated with pentagastrin and Lai's method [Gut 5, (1964), 327-341 ] was used, with slight modification.
After tracheotomy, the oesophagus and duodenum were cannulated. A tepid solution (37° C.) of 0.25 mM NaOH was perfused and was passed through the stomach by means of a peristaltic pump at a constant flow-rate of 1 ml/minute. After stabilization for 20 minutes, the stimulant, dissolved in a physiological solution, was perfused for 120 minutes at a dose of 30 mcg/kg/h, in a volume of 0.95 ml/hour. After perfusion for 60 minutes (the basal stimulation), the product under test was administered intravenously (I.V.) as a bolus and perfusion of the stimulant was continued for a further 60 minutes. The acid secretion was recorded continuously as a function of time.
The activity of the product was evaluated as the percentage reduction of secreted acidity after the administration of the product, in comparison with the basal acidity measured during the first 60 minutes of collection in the presence of pentagastrin alone.
The antagonistic compounds tested were administered in various doses so that an ID50, that is, the dose (in mg/kg I.V.) which could inhibit the effect of pentagastrin by 50%, could be calculated.

| Ratio IC50 Binding cortex / IC50 (gastric mucous cells) [1] | CCK-B-antagonistic activity IC50 (II) [1] [nM] | IC50, inhibition of the increase of cytosolic calcium [1] [nM] | IC50 order of magnitude, peripheral antigastrin activity ([1]; rabbit gastric mucous cells) | SMILES | ED50 [2] | antigastrin activity relative to the diastereoisomer at the carbon atom (**) [2] |
| --- | --- | --- | --- | --- | --- | --- |
| 3.0 | 50 | 50 |  | O=C(CC[C@@H](NC(=O)c1cc(Cl)cc(Cl)c1)C(=O)N1CCC2(CCCC2)CC1)N[C@H](Cc1ccccc1)C(=O)O [Compound 9, (R,R)-1[(1-carboxy-2-phenylethyl)amino]-1 oxo-5-(8-azaspiro[4.5]decan-8-yl)-4-(3,5-dichloro-benzoylamino)-5-oxopentanoic acid] | 12.3 mg/kg and 22.6 µmol/kg | about twice |
| 4.0 | 10 | 10 | nanomolar order of magnitude | O=C(CC[C@@H](NC(=O)c1cc(Cl)cc(Cl)c1)C(=O)N1CCC2(CCCC2)CC1)N[C@H](Cc1c[nH]c2ccccc12)C(=O)O [Compound 21] | 7.9 mg/kg and 12.6 µmol/kg | almost the same antigastrin activity |
